Results taken from patent publication US20050244335A1, “Methods and compositions related to increasing antitumor activity of chemotherapeutic agents” (priority 2004, published 2005).
Like-named read-outs stand apart in the source and are kept apart here.

What was measured:
CD-1 mice [1] = assay type: in vivo; conditions: for survival rate: carboplatin 600 mg/m^2 (200 mg/kg) i.p., 14-day
Protocol: Male CD-1 mice, randomly divided into multiple treatment and control groups (10 mice/group), were given DEX by subcutaneous (s.c.) injection at doses of 0.01, 0.05, 0.1, 0.3 mg/mouse/day or saline (as controls) for 5 days prior to (day −4 to 0) or after (day 0 to 4) a single intraperitoneal (i.p.) injection of carboplatin (600 mg/m^2 or 200 mg/kg) on day 0. Animals were monitored daily for activity, physical condition, body weight and 14-day survival rates.
(§1) The significance of the differences among treated groups and controls were analyzed by ANOVA.

CD-1 mice [2] = tested on: CD-1 mice
Protocol: sing a protocol similar to the above survival study, the effects of DEX on chemotherapy-induced bone marrow toxicity were studied in male CD-1 mice. DEX (s.c., 0.1 mg/mouse/day for 5 days) was given prior to (day −4-0) or after (day 0 to 4) a single i.p. dose of carboplatin (600 mg/m^2 or 200 mg/kg). On days −4, 0, 3, 7, 14, peripheral blood samples (60 μL) were obtained from postorbital venous plexus using a microcapillary tube coated with 5% ethylenediaminetetraacetic acid and cell counts were obtained using a Coulter counter. Wright's stained peripheral blood smears were examined by light microscopy and the percentage of lymphocytes, granulocytes and monocytes were recorded.
as §1
To examine possible mechanisms responsible for reduced mortality in mice pre-treated with DEX, peripheral blood counts before and after chemotherapy were determined. […] The same experimental design was used to examine the dose-schedule effects of dexamethasone prevention of neutropenia.

[3] = tested on: human colon cancer LS174T xenografts; assay: In vivo chemotherapy, colon cancer LS174T xenograft model in nude mice; conditions: DEX s.c. 0.1 mg/day 5 days, carboplatin 120 mg/kg i.p. day 0
Text: (§2) Cell Culture. […] All media contained 1% penicillin-streptomycin.
(§3) Data and Statistical Analysis.

[4] = tested on: human lung cancer A549 xenografts; conditions: A549 model
Text: as §2, §3

[5] = tested on: human lung cancer H1299 xenografts; assay: In vivo chemotherapy, lung cancer H1299 xenograft model in nude mice
Text: as §2, §3

[6] = tested on: human breast cancer MCF-7 xenografts; assay: In vivo chemotherapy, breast cancer MCF-7 xenograft model in nude mice; conditions: MCF-7 model
Text: as §2, §3

NSCLC patients = assay: Clinical trial of Dex pretreatment with carboplatin and gemcitabine in stage 4 NSCLC patients; assay type: in vivo, human; conditions: for AGC nadir ratio (course 2 ÷ course 1), M±SE: 4 days prior to and day of chemotherapy
Protocol: Patients were randomized at a 1:2:2 ratio to receive no Dex (Cohort 1), or Dex 8 mg bid (Cohort 2) or 16 mg bid (Cohort 3), 4 days prior to and the day of each chemotherapy treatment. Dex was given only in courses 2, 3, and 4 so that toxicities between course 1 vs. course 2 comparisons could be made.

[7] = tested on: human glioma U87-MG xenografts; conditions: U87MG model
Protocol: Cell Culture. The cell lines of human cancers (colon LS174T, breast MCF-7 and MDA-MB-468, and lung A549) and glioma (U87-MG) were obtained from American Type Culture Collection (Rockville, Md.) and cultured according to their instruction. LS174T cells were cultured in modified Earle's medium with 0.1 mM nonessential amino acids and Earle's balanced salt solution containing 10% FBS. MCF-7 cells were grown in modified Earle's medium containing 10% FBS, 1 mM non-essential amino acids and Earle's balanced salt solution, 1 mM sodium pyruvate and 10 mg/L bovine insulin. MDA-MB-468 cells were grown in Dulbecco's modified Eagle's/F-12 Ham's medium (1:1 mixture) containing 10% FBS. […]
Animal Tumor Models. […] The animals were monitored for activity, physical condition, determination of body weight, and measurement of tumor growth. Tumor growth was determined by caliper measurement in two perpendicular diameters of the implant every other day. Tumor weight (in g) was calculated by the formula, 1/2a×b^2 where “a” is the long diameter and “b” is the short diameter (in cm). […]
Data and Statistical Analysis. The antitumor activity (tumor mass) and peripheral blood counts were expressed as mean and standard deviations and the significance of differences were analyzed by ANOVA. […]

human cancer xenografts [8] = conditions: in vivo
Protocol: (§4) Human cancer xenograft models were established using the methods reported previously (26-29). When confluence reached 80%, cultured LS174T, MCF-7, MDA-MB-468, U87-MG, A549 and H1299 cells were harvested from the monolayer cultures, washed with the above indicated serum-free medium and resuspended in the same medium with Matrigel® basement membrane matrix at a 3:1 ratio, and then injected subcutaneously (s.c.) (5×10^6 cells, total volume 0.2 mL) into the left inguinal area of the nude mice. The animals were monitored for activity, physical condition, determination of body weight, and measurement of tumor growth. Tumor growth was determined by caliper measurement in two perpendicular diameters of the implant every other day. Tumor weight (in g) was calculated by the formula, 1/2a×b^2 where “a” is the long diameter and “b” is the short diameter (in cm).
(§5) Nude mice bearing human cancer xenografts were randomly divided into various treatment and control groups (5 mice/group). In treatment groups, animals were pre-treated with DEX subcutaneously (s.c., 0.1 mg/day for 5 days, Day −4-0) or saline (as controls). Carboplatin was administered intraperitoneally (i.p.) at a single dose of 120 mg/kg (360 mg/m^2) on day 0.
(§6) The antitumor activity (tumor mass) and peripheral blood counts were expressed as mean and standard deviations and the significance of differences were analyzed by ANOVA.
(§7) When mean tumor mass reached 44-68 mg, animals were treated with s.c. DEX at a dose of 0.1 mg/day for 5 days, followed by chemotherapy.

human cancer xenografts [9] = assay: Six murine-human cancer xenograft models overall: efficacy and toxicity
Protocol: as §4, §5, §6, §7

[10] = Pharmacokinetics and tissue distribution of gemcitabine in CD-1 mice; assay type: in vivo; conditions: gemcitabine 160 mg/kg iv
Protocol: At various times (5, 15, and 30 min, 1, 2, 4, 8, and 24 hr after drug dosing), plasma, bone marrow, and tissues including liver, kidneys, heart, lungs, spleen, brain and tumor were collected and treated as described above.
In brief, plasma samples (50 μL) were mixed with […] of scintillation solvent (Beckman) to determine total radioactivity. Tissue homogenates (50-200 μL) were mixed with 200 μL solubilizer (TS-2) overnight, neutralized with 400 μL of 0.3% acetic acid, and then mixed with scintillation solvent (5 mL) to quantitate the total radioactivity.
as §1

[11] = Pharmacokinetics of gemcitabine in nude mice bearing H1299 xenografts; assay type: in vivo; conditions: for AUC / CL / Cmax / Vss: nude mice bearing H1299 xenografts, gemcitabine 160 mg/kg iv
Protocol: Female nude mice bearing human lung cancer H1299 xenograft were used (3 mice for each time point). […] Bone marrow cells were harvested by using the same method described above. […] In brief, plasma samples (50 μL) were mixed with 5 mL of scintillation solvent (Beckman) to determine total radioactivity. […] Data and Statistical Analysis.

C[C@@H]1C[C@H]2[C@@H]3CCC4=CC(=O)C=C[C@]4(C)[C@@]3(F)[C@@H](O)C[C@]2(C)[C@@]1(O)C(=O)CO [DEX, dexamethasone]
death (CD-1 mice [1]; CD-1 mice, DEX alone s.c. 0.01-0.3 mg/mouse/day for 5 days): No death occurred
survival rate (CD-1 mice [1]; CD-1 mice, DEX pretreatment 0.01 mg/mouse/day for 5 days): 40%
survival rate (CD-1 mice [1]; CD-1 mice, DEX pretreatment s.c. 0.1 mg/mouse/day for 5 days): 80%
mortality of treated animals (CD-1 mice [1]; combination treatment with carboplatin and gemcitabine, DEX pretreatment): reduced the mortality of treated animals
optimal dose for prevention of neutropenia (CD-1 mice [2]; CD-1 mice, DEX before carboplatin 360 mg/m^2): 0.1 mg/kg
peripheral blood counts, effect of dexamethasone (CD-1 mice [2]; mouse, in vivo): induction of transient granulocytosis and lymphopenia
increase of therapeutic effect of carboplatin by DEX pretreatment [3]: approximately 80%
increase of therapeutic effectiveness of carboplatin by DEX pretreatment [4]: 50%
increase of therapeutic effectiveness of gemcitabine by DEX pretreatment [4]: 60%
increase of anticancer effects of carboplatin by DEX pretreatment [5]: 70%
increase of efficacy of carboplatin by DEX pretreatment [6]: 66%
increase of efficacy of gemcitabine by DEX pretreatment [6]: 60%
Responses: number of PD (NSCLC patients; Cohort 2 (n=8), Dex 8 mg bid): 1
Responses: number of PR (NSCLC patients; Cohort 2 (n=8), Dex 8 mg bid): 7
platelet nadir ratio (course 2 ÷ course 1), M±SE (NSCLC patients; Cohort 2: Dex 8 mg bid): 2.68±0.6
AGC nadir ratio (course 2 ÷ course 1), M±SE (NSCLC patients; Cohort 2: Dex 8 mg bid): 2.68±0.8
Responses: number of PD (NSCLC patients; Cohort 3 (n=10), Dex 16 mg bid): 1
Responses: number of PR (NSCLC patients; Cohort 3 (n=10), Dex 16 mg bid): 8
Responses: number of SD (NSCLC patients; Cohort 3 (n=10), Dex 16 mg bid): 1
platelet nadir ratio (course 2 ÷ course 1), M±SE (NSCLC patients; Cohort 3: Dex 16 mg bid): 2.72±0.6
AGC nadir ratio (course 2 ÷ course 1), M±SE (NSCLC patients; Cohort 3: Dex 16 mg bid): 2.94±0.7
reduction of toxicity, data trends (NSCLC patients; Dex 16 mg): effective in reducing toxicity
Dex DLTs (NSCLC patients; NSCLC patients, Dex 8 or 16 mg bid): No Dex DLTs were observed
increase of therapeutic effectiveness of combination therapy of carboplatin and gemcitabine by DEX pretreatment [7]: 130%
effect of DEX pretreatment on toxicity profiles of the two chemotherapeutic agents (human cancer xenografts [8]): no effect on toxicity profiles
increase of efficacy of carboplatin, gemcitabine or combination by DEX pretreatment (human cancer xenografts [9]; all xenograft models tested): 2-4 fold

Nc1ccn([C@@H]2O[C@H](CO)[C@@H](O)C2(F)F)c(=O)n1 [gemcitabine]
AUC ([10]; bone marrow, DEX (+)): 7.03 µg·h/mL
CL ([10]; bone marrow, DEX (+)): 22.76 mL/g/h
Cmax ([10]; bone marrow, DEX (+)): 15.82 µg/mL
Vss ([10]; bone marrow, DEX (+)): 10.12 mL/g
AUC ([10]; bone marrow, DEX (−)): 18.35 µg·h/mL
CL ([10]; bone marrow, DEX (−)): 8.72 mL/g/h
Cmax ([10]; bone marrow, DEX (−)): 16.12 µg/mL
Vss ([10]; bone marrow, DEX (−)): 9.93 mL/g
AUC ([10]; liver, DEX (+)): 124.80 µg·h/mL
CL ([10]; liver, DEX (+)): 1.28 mL/g/h
Cmax ([10]; liver, DEX (+)): 166.94 µg/mL
Vss ([10]; liver, DEX (+)): 0.96 mL/g
AUC ([10]; liver, DEX (−)): 123.68 µg·h/mL
CL ([10]; liver, DEX (−)): 1.29 mL/g/h
Cmax ([10]; liver, DEX (−)): 158.43 µg/mL
Vss ([10]; liver, DEX (−)): 1.01 mL/g
AUC ([10]; plasma, DEX (+)): 319.96 µg·h/mL
CL ([10]; plasma, DEX (+)): 0.50 mL/g/h
Cmax ([10]; plasma, DEX (+)): 253.68 µg/mL
Vss ([10]; plasma, DEX (+)): 10.81 mL/g
AUC ([10]; plasma, DEX (−)): 552.32 µg·h/mL
CL ([10]; plasma, DEX (−)): 0.29 mL/g/h
Cmax ([10]; plasma, DEX (−)): 264.13 µg/mL
Vss ([10]; plasma, DEX (−)): 16.64 mL/g
AUC ([10]; spleen, DEX (+)): 135.50 µg·h/mL
CL ([10]; spleen, DEX (+)): 1.18 mL/g/h
Cmax ([10]; spleen, DEX (+)): 193.29 µg/mL
Vss ([10]; spleen, DEX (+)): 0.83 mL/g
AUC ([10]; spleen, DEX (−)): 375.21 µg·h/mL
CL ([10]; spleen, DEX (−)): 0.43 mL/g/h
Cmax ([10]; spleen, DEX (−)): 196.84 µg/mL
Vss ([10]; spleen, DEX (−)): 0.81 mL/g
increase in tumor AUC by DEX pretreatment ([11]; H1299 nude mice): 60%
AUC ([11]; bone marrow, DEX (+)): 16.41 µg·h/mL
CL ([11]; bone marrow, DEX (+)): 9.75 mL/g/h
Cmax ([11]; bone marrow, DEX (+)): 14.36 µg/mL
Vss ([11]; bone marrow, DEX (+)): 11.14 mL/g
AUC ([11]; bone marrow, DEX (−)): 21.10 µg·h/mL
CL ([11]; bone marrow, DEX (−)): 7.58 mL/g/h
Cmax ([11]; bone marrow, DEX (−)): 18.53 µg/mL
Vss ([11]; bone marrow, DEX (−)): 8.64 mL/g
AUC ([11]; liver, DEX (+)): 107.85 µg·h/mL
CL ([11]; liver, DEX (+)): 1.48 mL/g/h
Cmax ([11]; liver, DEX (+)): 157.46 µg/mL
Vss ([11]; liver, DEX (+)): 1.02 mL/g
AUC ([11]; liver, DEX (−)): 123.27 µg·h/mL
CL ([11]; liver, DEX (−)): 1.30 mL/g/h
Cmax ([11]; liver, DEX (−)): 171.80 µg/mL
Vss ([11]; liver, DEX (−)): 0.93 mL/g
AUC ([11]; plasma, DEX (+)): 322.43 µg·h/mL
CL ([11]; plasma, DEX (+)): 0.50 mL/g/h
Cmax ([11]; plasma, DEX (+)): 237.16 µg/mL
Vss ([11]; plasma, DEX (+)): 9.90 mL/g
AUC ([11]; plasma, DEX (−)): 277.38 µg·h/mL
CL ([11]; plasma, DEX (−)): 0.58 mL/g/h
Cmax ([11]; plasma, DEX (−)): 286.72 µg/mL
Vss ([11]; plasma, DEX (−)): 5.96 mL/g
AUC ([11]; spleen, DEX (+)): 505.40 µg·h/mL
CL ([11]; spleen, DEX (+)): 0.32 mL/g/h
Cmax ([11]; spleen, DEX (+)): 179.42 µg/mL
Vss ([11]; spleen, DEX (+)): 0.89 mL/g
AUC ([11]; spleen, DEX (−)): 909.92 µg·h/mL
CL ([11]; spleen, DEX (−)): 0.18 mL/g/h
Cmax ([11]; spleen, DEX (−)): 221.99 µg/mL
Vss ([11]; spleen, DEX (−)): 0.72 mL/g
AUC ([11]; tumor, DEX (+)): 674.44 µg·h/mL
CL ([11]; tumor, DEX (+)): 0.23 mL/g/h
Cmax ([11]; tumor, DEX (+)): 46.66 µg/mL
Vss ([11]; tumor, DEX (+)): 12.72 mL/g
AUC ([11]; tumor, DEX (−)): 434.55 µg·h/mL
CL ([11]; tumor, DEX (−)): 0.37 mL/g/h
Cmax ([11]; tumor, DEX (−)): 49.15 µg/mL
Vss ([11]; tumor, DEX (−)): 9.01 mL/g
death (human cancer xenografts [9]; nude mice, carboplatin 120 mg/kg, gemcitabine 160 mg/kg i.p.): no death occurred
